Values after ≈ are worked out from the molar mass of the structure shown.

Data set [1] relates to Mycobacterium tuberculosis. Briefly: Antibacterial activity against Mycobacterium tuberculosis MDR1 measured at 7 to 14 days by broth microdilution method. It counts as functional.
Data set [2] concerns Mycobacterium tuberculosis. Briefly: Antibacterial activity against Mycobacterium tuberculosis MDR5 measured at 7 to 14 days by broth microdilution method. It is filed as functional.
The subject of data set [3] is Mycobacterium tuberculosis. Description: Antibacterial activity against Mycobacterium tuberculosis XDR2 measured at 7 to 14 days by broth microdilution method. It is filed as functional.
Data set [4] has as its system Mycobacterium tuberculosis. Description: Antibacterial activity against Mycobacterium tuberculosis XDR1 measured at 7 to 14 days by broth microdilution method. It is filed as functional.
In data set [5] the test system is Mycobacterium tuberculosis. Description: Antibacterial activity against Mycobacterium tuberculosis MDR7 measured at 7 to 14 days by broth microdilution method. It is filed as functional.
Data set [6] has as its system Mycobacterium tuberculosis. Description: Antibacterial activity against Mycobacterium tuberculosis MDR2 measured at 7 to 14 days by broth microdilution method. It counts as functional.
Data set [7] has as its system Mycobacterium tuberculosis. Briefly: Antibacterial activity against Mycobacterium tuberculosis MDR4 measured at 7 to 14 days by broth microdilution method. It is filed as functional.
Data set [8] has as its system Mycobacterium tuberculosis. Briefly: Antibacterial activity against Mycobacterium tuberculosis MDR8 measured at 7 to 14 days by broth microdilution method. It is filed as functional.
The test system of data set [9] is Mycobacterium tuberculosis. Briefly: Antibacterial activity against Mycobacterium tuberculosis MDR3 measured at 7 to 14 days by broth microdilution method. It counts as functional.
The subject of data set [10] is Mycobacterium tuberculosis. Briefly: Antibacterial activity against Mycobacterium tuberculosis MDR6 measured at 7 to 14 days by broth microdilution method. It counts as functional.
The subject of data set [11] is Mycobacterium tuberculosis. Description: Antibacterial activity against Mycobacterium tuberculosis H37Rv measured at 10 to 14 days by broth microdilution method. It counts as functional.
Data set [12] concerns the target T1, Biotin--[acetyl-CoA-carboxylase] ligase (Mycobacterium tuberculosis (strain ATCC 25618 / H37Rv), UniProt I6YFP0).
T1 sequence (I6YFP0 whole entry): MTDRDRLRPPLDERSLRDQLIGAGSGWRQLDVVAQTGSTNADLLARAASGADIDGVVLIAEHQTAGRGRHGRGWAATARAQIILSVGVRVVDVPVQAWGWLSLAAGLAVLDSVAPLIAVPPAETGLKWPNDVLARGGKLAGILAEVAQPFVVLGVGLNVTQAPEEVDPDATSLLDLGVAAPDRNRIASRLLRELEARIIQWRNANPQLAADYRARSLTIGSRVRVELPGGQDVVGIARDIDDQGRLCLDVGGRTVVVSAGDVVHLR

Data set [13] relates to Mycobacterium tuberculosis H37Rv. Briefly: Drug uptake in Mycobacterium tuberculosis H37Rv at 25 uM after 24 hrs by LC-MS/MS analysis. It counts as ADME, organism-based.

Regarding `Nc1ncnc2c1ncn2[C@@H]1O[C@H](CNS(=O)(=O)NC(=O)CCCC[C@@H]2SC[C@@H]3NC(=O)N[C@@H]32)[C@@H](O)[C@H]1O`, the MIC99 in [1], in data set [2], in data set [3], in data set [4], in [5] and in [6] was 0.16 µM (≈ 0.0915 µg/mL) throughout. Besides, the MIC99 in data set [7], in data set [8], in data set [9] and in data set [10] was 0.16 µM (≈ 0.0915 µg/mL) throughout.
Take `Nc1ncnc2c1ncn2[C@@H]1C[C@H](CNS(=O)(=O)NC(=O)CCCC[C@@H]2SC[C@@H]3NC(=O)N[C@@H]32)[C@@H](O)[C@H]1O`: the MIC90 in data set [11] is above 100 µM. The dissociation constant Kd in data set [12] is 0.753 nM.
On the same counts, the results for `[N-]=[N+]=N[C@@H]1[C@H](O)[C@@H](CNS(=O)(=O)NC(=O)CCCC[C@@H]2SC[C@@H]3NC(=O)N[C@@H]32)O[C@H]1n1cnc2c(N)ncnc21` are 3.12 µM (≈ 1.86 µg/mL) and 0.933 nM.
On the same counts, the results for `Nc1ncnc2c1ncn2[C@@H]1O[C@H](CNS(=O)(=O)NC(=O)CCCC[C@@H]2SC[C@@H]3NC(=O)N[C@@H]32)[C@@H](O)[C@H]1N` are 1.25 µM (≈ 0.713 µg/mL) and 0.627 nM.
In data set [11], `CCN(CC)CC.Nc1ncnc2c1ncn2[C@@H]1O[C@H](CNS(=O)(=O)NC(=O)CCCC[C@@H]2SC[C@@H]3NC(=O)N[C@@H]32)[C@@H](O)[C@H]1F` displayed an MIC90 of 1.25 µM. In addition, the Drug uptake result in data set [13] is reported as “Active”. This compound also displayed a dissociation constant (Kd) in data set [12] of 0.614 nM.
For `Nc1ncnc2c1ncn2[C@H]1C=C[C@@H](CNS(=O)(=O)NC(=O)CCCC[C@@H]2SC[C@@H]3NC(=O)N[C@@H]32)C1`, in data set [11], the MIC90 was 3.12 µM (≈ 1.67 µg/mL). In data set [12], this compound had a Kd of 2.14 nM.
Turning to `CCN(CC)CC.Nc1ncnc2c1ncn2[C@@H]1O[C@H](COS(=O)(=O)NC(=O)CCCC[C@@H]2SC[C@@H]3NC(=O)N[C@@H]32)[C@@H](O)[C@@H]1F`, the MIC90 in [11] came to 50 µM. In addition, the Drug uptake entry in [13] is reported as “Active”. The compound further returned a Kd in [12] of 0.153 nM.
In turn, `C[C@@]1(O)[C@H](O)[C@@H](COS(=O)(=O)NC(=O)CCCC[C@@H]2SC[C@@H]3NC(=O)N[C@@H]32)O[C@H]1n1cnc2c(N)ncnc21` registered an MIC90 in data set [11] of 50 µM (≈ 29.3 µg/mL). In data set [12], the affinity, expressed as Kd, was 0.769 nM.
The matching figures for `Nc1ncnc2c1ncn2[C@H]1CNC[C@@H](COS(=O)(=O)NC(=O)CCCC[C@@H]2SC[C@@H]3NC(=O)N[C@@H]32)O1`: 3.12 µM (≈ 1.73 µg/mL) and 0.324 nM.
`Nc1ncnc2c1ncn2[C@@H]1O[C@H](CNS(=O)(=O)NC(=O)CCCC[C@@H]2SC[C@@H]3NC(=O)N[C@@H]32)C[C@H]1O` displayed an MIC90 in [11] of 0.78 µM (≈ 0.433 µg/mL). For the same compound, the Kd in [12] amounted to 0.592 nM.
In turn, `Nc1ncnc2c1ncn2[C@H]1CC[C@@H](CNS(=O)(=O)NC(=O)CCCC[C@@H]2SC[C@@H]3NC(=O)N[C@@H]32)C1` had an MIC90 in [11] of 1.56 µM (≈ 0.839 µg/mL). The Kd in data set [12] turned out to be 0.54 nM.
